# Data: EP1048669A1, “CARBAPENEM DERIVATIVES” (priority 1997, dated 1999)
# Structures can show the parent of a compound that is named as a salt. Where two headings read alike, the source gives them in different places.
# What was measured:
# [1] = biological target: T1, Metallo-β-lactamase encoded by plasmid pMS350 (Serratia marcescens, UniProt P52699); assay: β-Lactamase inhibition test (Nitrocefin substrate); type: biochemical, Pseudomonas aeruginosa GN17203; details: Nitrocefin 37.5 µg/ml, 30°C for 15 minutes, Zn2+ 100 µM, MOPS buffer
# T1 construct: made in house
# T1 sequence (P52699 19-246): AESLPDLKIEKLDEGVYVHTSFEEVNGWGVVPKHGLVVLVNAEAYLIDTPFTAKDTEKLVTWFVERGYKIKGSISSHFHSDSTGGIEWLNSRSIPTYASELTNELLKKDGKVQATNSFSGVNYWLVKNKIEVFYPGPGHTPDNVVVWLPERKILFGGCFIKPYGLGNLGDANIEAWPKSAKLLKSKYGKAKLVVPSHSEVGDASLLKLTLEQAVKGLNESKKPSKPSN
# Procedure: Metallo-β-lactamase encoded by plasmid pMS350 originated from Pseudomonas aeruginosa GN17203 was purified and used for this test. The enzyme previously gave a single protein band on SDS/PAGE (specific activity: 70 U/mg protein). The enzymatic activity (U) was measured by reacting it with 100 µM of imipenem dissolved in 10 mM 3-morpholinopropanesulfonate buffer (pH 7.0) (hereinafter referred to as MOPS buffer) containing 100 µM zinc chloride, and the quantity of enzyme capable of hydrolyzing 1 µM of imipenem per one minute at a reaction temperature of 30°C was defined as 1 U.
# As the screening substrate of this test, Nitrocefin®, OXOID) was used. In each well of a 96 well plate, 1 µl of a test agent dissolved in 10 mM MOPS buffer and 25 µl of metallo-β-lactamase preparation (enzymatic activity: 3-6 mU/ml) were mixed, and then 75 µl of 50 µg/ml Nitrocefin® was added and mixed to create a final substrate concentration of 37.5 µg/ml. The enzymic reaction was carried out at 30°C for 15 minutes and followed by measuring the quantity of hydrolyzed Nitrocefin™ at a wavelength of 492 nm by means of a microplate reader. In this screening system, the operation was carried out in the presence of Zn^2+ (100 µM) in order to eliminate the inhibitory effect due to chelating action. […]
# [2] = test system: male SD rats; assay: Toxicity test on the central nervous system (administration to the right ventricle of the brain); type: in vivo; details: observed thirty minutes
# From the text: A chronic guide cannula was inserted into the right ventricle of the brain of 7-weeks old male SD rats (n = 5) and immobilized with a dental resin. […] After the administration, behavior of the animal was visually examined in an observing cage for thirty minutes.
# [3] = In vivo stability test (TLC bioautography of urine); design: species or system rhesus monkey
# Procedure: The compound of Example 1 was used as a representative compound, and the compound of Example 139B of Document A was used as a comparative compound. A test agent (10 mg/kg) was intravenously administered to 4-years old male rhesus monkey (body weight 5.48 kg) over a period of 5 minutes. The urine was collected over a period of 0-1 hour and over a period of 1-2 hours, both after the administration. The urine samples were stored at an ice-cooled temperature. A TLC plate (silica gel 60F-254, manufactured by Merck Co.) which had been activated just before use at 120°C for 30 minutes and spotted with 4 µl of each urine sample, was developed with a solvent in a closed vessel (developing solvent: CH3CN/H2O/CH3COOH/25% NH4OH = 45:30:6:2; pH 5.3). After completion of the development, the TLC plate was taken out of the vessel, and dried. An AM-1 medium (manufactured by Difco Co.) containing a test strain (B. subtilis ATCC 12432) was contacted with the silica gel surface of the TLC plate at ambient temperature for 30 minutes. After stripping off the TLC plate, the medium was cultured at 37°C overnight. Rf value of a clear zone formed by the growth inhibition of test strain was determined. As control, the test compound was dissolved in 10 mmol MOPS buffer (pH 7) at the concentration of 250 µg/ml, and 2 µl of this solution was spotted on a TLC plate.
# [4] = test system: E. coli NIHJ JC2; assay: In vitro antibacterial activity, agar plate dilution method (MIC); type: cell-based; details: Escherichia coli, read-out: Minimum growth inhibitory concentrations (MIC)
# Procedure: (§1) A Mueller Hinton agar (MH agar) was inoculated with a platinum loop quantity (the quantity of inoculated bacterium: 10^6 CFU/ml) of each test bacterial strain which had been cultured overnight in Mueller Hinton broth. The culture medium contained an antibacterial agent at a varied concentration. After a culture at 37°C for 16 hours, the minimum growth inhibitory concentration (MIC: µg/ml) of the compound of this invention was measured. When MRSA was used as the test strain, a medium containing 2% sodium chloride was used as the test medium in accordance with the above-mentioned agar plate dilution method, and the minimum growth inhibitory concentration (MIC: µg/ml) of the compound of this invention was measured under culture conditions of 35°C, 48 hours.
# [5] = test system: P. aeruginosa IFO-3445; assay: as above; type: cell-based; details: Pseudomonas aeruginosa, read-out: Minimum growth inhibitory concentrations (MIC)
# Procedure: as §1
# [6] = test system: MRSA BB6294; assay: In vitro antibacterial activity, agar plate dilution method (MIC), MRSA conditions; type: cell-based, methicillin-resistant Staphylococcus aureus; details: Staphylococcus aureus, read-out: Minimum growth inhibitory concentrations (MIC)
# Procedure: as §1
# [7] = test system: male ICR mice; assay: Acute toxicity test (single intravenous administration); type: in vivo; details: observed over five days
# Procedure: The compound of Example 24 was used as a representative compound. According to "Explanation Book for GLP Standard and Toxicity Test Guideline" (supervised by Department of Examination, Bureau of Pharmacy, Ministry of Health and Welfare; published by Yakuji Shimpou-sha), a test compound was diluted with distilled water for injection use until the agent concentration reached 60.75 mg/ml and once administered intravenously to the tail vein of 6-weeks old male ICR mice at an administration rate of 1 ml/min. After the administration, the state of death and the general motility were observed over five days.
# [8] = test system: Pseudomonas aeruginosa; details: especially against Pseudomonas aeruginosa; cited from earlier work
# [9] = 400 µg/rat into right ventricle of the brain
# [10] = 200 µg/rat into right ventricle of the brain
# [11] = mouse, 500 mg/kg intravenously once
# [12] = mouse, 1,000 mg/kg intravenously once
# [13] = mouse, 1,500 mg/kg intravenously once
compound,measurement,setting,value
"C=CCOC(=O)N(C)Cc1ccc([C@H]2C[C@H](SC(C)=O)CN2C(=O)OCC=C)cc1 [Compound of Referential. Ex. 1, (2R,4S)-4-Acetylthio-1-allyloxycarbonyl-2-(4-N-allyloxycarbonyl-N-methylaminomethyl)phenylpyrrolidine]",IC50,[1],< 100 nM
"CNCc1ccc([C@H]2C[C@H](SC3=C(C(=O)O)N4C(=O)[C@H]([C@@H](C)O)[C@H]4[C@H]3C)CN2)cc1.Cl [Example 1, (1R,5S,6S)-2-[(3S,5R)-5-[4-N-methylaminomethylphenyl]-pyrrolidin-3-ylthio]-6-[(R)-1-hydroxyethyl]-1-methyl-1-carbapen-2-em-3-carboxylic acid hydrochloride]",Number of convulsed cases,[2]; [9],0/5
same,Number of dead cases,[2]; [9],0/5
same,"Rf value, Control","[3]; control: test compound in 10 mmol MOPS buffer (pH 7), 250 µg/ml, spotted on TLC plate, clear zone with B. subtilis ATCC 12432",0.40
same,"Rf value, Accumulated urine during 0-1 hr after administration","[3]; rhesus monkey, 10 mg/kg intravenously, urine 0-1 hr, TLC clear zone with B. subtilis ATCC 12432",0.40
same,"Rf value, Accumulated urine during 1-2 hrs after administration","[3]; rhesus monkey, 10 mg/kg intravenously, urine 1-2 hrs, TLC clear zone with B. subtilis ATCC 12432",0.40
"C[C@H](N)c1ccc([C@H]2C[C@H](SC3=C(C(=O)O)N4C(=O)[C@H]([C@@H](C)O)[C@H]4[C@H]3C)CN2)cc1 [Example 14, (1R,5S,6S)-2-[(3S,5R)-5-[4-[(1S)-aminoethyl]phenyl]-pyrrolidin-3-ylthio]-6-[(R)-1-hydroxyethyl]-1-methyl-1-carbapen-2-em-3-carboxylic acid hydrochloride]",MIC,"[4]; NIHJJC2, 16 h",0.025 µg/mL
same,MIC,"[5]; IFO3445, 16 h",0.1 µg/mL
same,MIC,"[6]; MRSA, 48 h",3.13 µg/mL
same,Number of convulsed cases,[2]; [10],0/5
same,Number of dead cases,[2]; [10],0/5
"C[C@@H](N)c1ccc([C@H]2C[C@H](SC3=C(C(=O)O)N4C(=O)[C@H]([C@@H](C)O)[C@H]4[C@H]3C)CN2)cc1 [Example 15, (1R,5S,6S)-2-[(3S,5R)-5-[4-[(1R)-aminoethyl]phenyl]-pyrrolidin-3-ylthio]-6-[(R)-1-hydroxyethyl]-1-methyl-1-carbapen-2-em-3-carboxylic acid hydrochloride]",MIC,"[4]; NIHJJC2, 16 h",0.025 µg/mL
same,MIC,"[5]; IFO3445, 16 h",0.2 µg/mL
same,MIC,"[6]; MRSA, 48 h",3.13 µg/mL
same,Number of convulsed cases,[2]; [10],0/5
same,Number of dead cases,[2]; [10],0/5
"C[C@@H](O)[C@H]1C(=O)N2C(C(=O)O)=C(S[C@@H]3CN[C@@H](c4ccc(C(N)CC(N)=O)cc4)C3)[C@H](C)[C@H]12.Cl (stereo partly drawn) [Example 24, (1R,5S,6S)-2-[(3S,5R)-5-[4-(1-amino-2-carbamoylethyl)-phenyl]pyrrolidin-3-ylthio]-6-[(R)-1-hydroxyethyl]-1-methyl-1-carbapen-2-em-3-carboxylic acid hydrochloride]",Motility and general symptoms,[7]; [11],No abnormality
same,Number of alive animals,[7]; [11],2/2
same,Motility and general symptoms,[7]; [12],No abnormality
same,Number of alive animals,[7]; [12],5/5
same,Motility and general symptoms,[7]; [13],No abnormality
same,Number of alive animals,[7]; [13],5/5
"C[C@@H](O)[C@H]1C(=O)N2C(C(=O)O)=C(S[C@@H]3CN[C@@H](c4csc(CN)c4)C3)[C@H](C)[C@H]12.Cl [Example 32, (1R,5S,6S)-2-[(3S,5R)-5-(2-aminomethyl-4-thienyl)-pyrrolidin-3-ylthio]-6-[(R)-1-hydroxyethyl]-1-methyl-1-carbapen-2-em-3-carboxylic acid hydrochloride]",MIC,"[4]; NIHJJC2, E. coli NIHJ JC2, MH agar, 10^6 CFU/ml, 37°C for 16 hours",0.025 µg/mL
same,MIC,"[5]; IFO3445, P. aeruginosa IFO-3445, MH agar, 10^6 CFU/ml, 37°C for 16 hours",0.39 µg/mL
same,MIC,"[6]; MRSA BB6294, medium containing 2% sodium chloride, 35°C, 48 hours",3.13 µg/mL
"C[C@@H](O)[C@H]1C(=O)N2C(C(=O)O)=C(SCCNC=N)C[C@H]12.O [Imipenem, (5R,6S)-3-[2-(formimidoylamino)-ethylthio]-6-[(R)-1-hydroxyethyl]-7-oxo-1-azabicyclo[3.2.0]hepta-2-ene-2-carboxylic acid monohydrate]","enhanced antibacterial activity compared to the parent antibiotic, thienamycin",[8],2-4 times
